In patent US20250049693A1, “METHOD FOR AMPLIFYING EXPRESSION OF TRANSPORTER-RELATED GENE IN EPIDERMAL CELLS” (J-Network, Inc., priority 2023, published 2025):

Key:
GSR gene = assay: Amplification of mRNA expression of GSR gene (quantitative real-time PCR); format: cell-based, human; conditions: NHEKs, corrected with GAPDH, control = 1
Description: (§1) A test for confirming the amplification of mRNA expression of each transporter-related gene in epidermal cell was performed.
(§2) Normal human epidermal keratinocytes (NHEKs) were seeded on a 96-well plate at a cell density of 2.0×10^4cells/well using HuMedia-KG2 medium (manufactured by Kurabo Industries Ltd.), and cultured under the conditions of 37° C. and 5% CO2 for 24 hours.
(§3) Thereafter, a diacylglycerol PEG adduct was added thereto using HuMedia-KB2 medium (manufactured by Kurabo Industries Ltd.), and each was cultured under the conditions of 37° C. and 5% CO2 for a predetermined time. Table 1 represents the target gene, the types of diacylglycerol PEG adduct added, the adding amount, and the culture time. A control (no addition) was also cultured under the same conditions.
(§4) After the cells were cultured for each predetermined time, RNA was extracted from the cells of each sample and control. The extracted RNA was reverse-transcribed to prepare cDNA, and the mRNA of the target gene was quantified by quantitative real-time PCR expression analysis. […]
(§5) In the analysis, the mRNA expression level of each target gene was corrected with the value of the expression level of GAPDH, which is an internal standard in the same sample, and the correction value of the sample was calculated as a relative expression level when the correction value of the control was set to 1.

SVCT2 gene = assay: Amplification of mRNA expression of SVCT2 gene (quantitative real-time PCR); format: cell-based, human; conditions: NHEKs; 100 μM; culture 30 hr; corrected with GAPDH, control = 1
Description: as §1, §2, §3, §4, §5

SLC7A11 gene = assay: Amplification of mRNA expression of SLC7A11 gene (quantitative real-time PCR); format: cell-based, human; conditions: NHEKs; 100 μM; culture 24 hr; corrected with GAPDH, control = 1
Description: as §1, §2, §3, §4, §5

ABCC1 gene = assay: Amplification of mRNA expression of ABCC1 gene (quantitative real-time PCR); format: cell-based, human; conditions: NHEKs, corrected with GAPDH, control = 1
Description: as §1, §2, §3, §4, §5

[1] = tested on: Normal human epidermal keratinocytes (NHEKs); assay: Evaluation of cellular uptake action of cystine: hydroquinone cytotoxicity, neutral red assay; format: cell-based; conditions: then 400 μM hydroquinone 24 hours
Description: From the test results of (1) and (2) described above, it was confirmed that the expression of the SLC7A11 genes was enhanced by the application of the diacylglycerol PEG adduct to epidermal cells, and thus the production of the protein, which is the xCT transporter encoded thereby, was enhanced. Therefore, the cellular uptake action of cystine was actually evaluated. This evaluation was performed by quantifying the cytotoxicity of hydroquinone (HQ) when a diacylglycerol PEG adduct, cystine, and hydroquinone were added to epidermal cells.
Normal human epidermal keratinocytes (NHEKs) were seeded on a 96-well plate at a cell density of 2.0×10^4 cells/well using HuMedia-KG2 medium and cultured under the conditions of 37° C. and 5% CO2 for 24 hours.
Thereafter, using HuMedia-KB2 medium, a sample to which 50 μM of PEG-23 glycerol distearate (GDS23) was added and a sample to which GDS23 was not added were respectively cultured under the conditions of 37° C. and 5% CO2 for 24 hours.
Subsequently, the samples were washed with PBS (−), and the GDS23-added samples and the GDS23 non-added samples were respectively cultured in the following three media for 30 hours. The cysteine added to the medium is oxidized in the medium or between cells to be converted into cystine, which is a dimer, and is incorporated into the cells as cystine. • HuMedia-KB2 medium containing 0 μM of cysteine (Cys) • HuMedia-KB2 medium containing 10 μM of cysteine (Cys) • HuMedia-KB2 medium containing 50 μM of cysteine (Cys)
Further, the cells were washed with PBS (−) and cultured in HuMedia-KB2 medium containing 400 μM of hydroquinone (HQ) for 24 hours.
The control (no addition of any of GDS23, Cys, and HQ) was cultured only in HuMedia-KB2 medium.
Thereafter, the cell viability was measured by the neutral red assay. The cell viability was calculated for each of the GDS23-added samples and the GDS23 non-added samples, taking the cell viability of the control as 100%.

[2] = tested on: Normal human epidermal keratinocytes (NHEKs); assay: Evaluation of cellular uptake action of vitamin C: hydroquinone cytotoxicity, neutral red assay; format: cell-based; conditions: then 400 μM hydroquinone 24 hours
Description: This evaluation was performed by quantifying the cytotoxicity of hydroquinone (HQ) when a diacylglycerol PEG adduct, vitamin C, and hydroquinone were added to epidermal cells.
Normal human epidermal keratinocytes (NHEKs) were seeded on a 96-well plate at a cell density of 2.0×10^4 cells/well using HuMedia-KG2 medium and cultured under the conditions of 37° C. and 5% CO: for 24 hours.
Thereafter, using HuMedia-KB2 medium, a sample to which 50 μM of PEG-23 glycerol distearate (GDS23) was added and a sample to which GDS23 was not added were respectively cultured under the conditions of 37° C. and 5% CO: for 24 hours.
Subsequently, the samples were washed with PBS (−), and the GDS23-added samples and the GDS23 non-added samples were respectively cultured in the following six media for 24 hours. • HuMedia-KB2 medium containing 0 μM of ascorbic acid (AsA) • HuMedia-KB2 medium containing 1 μM of ascorbic acid (AsA) • HuMedia-KB2 medium containing 5 μM of ascorbic acid (AsA) • HuMedia-KB2 medium containing 10 μM of ascorbic acid (AsA) • HuMedia-KB2 medium containing 50 μM of ascorbic acid (AsA) • HuMedia-KB2 medium containing 100 μM of ascorbic acid (AsA)
The control (no addition of any of GDS23, AsA, and HQ) was cultured only in HuMedia-KB2 medium.

SVCT2 protein = assay: Test for enhanced production of SVCT2 proteins (Western blotting); format: cell-based, human; conditions: NHEKs, 50 μM, 24 hours
Description: A test for confirming the enhanced production of proteins encoded by the SVCT2 genes was performed using Western blotting.
Normal human epidermal keratinocytes (NHEKs) were seeded on a 96-well plate at a cell density of 1.0×10^5 cells/well using HuMedia-KG2 medium and cultured under the conditions of 37° C. and 5% CO2 for 24 hours.
Thereafter, 50 μM of PEG-23 glycerol distearate (GDS23) was added thereto using HuMedia-KB2 medium, and the cells were cultured under the conditions of 37° C. and 5% CO2 for 24 hours. A control (no addition) was cultured only in HuMedia-KB2 medium.
After culturing, Western blotting was applied. First, proteins were extracted from the cells using […] containing 10% mercaptoethanol. The protein extract solution was subjected to electrophoresis using a polyacrylamide gel, and the proteins were transferred to a membrane by a semi-dry method. The amount of the SVCT2 protein was corrected with the amount of GAPDH, which is an internal standard in the same sample, and the correction value of the sample was calculated with the correction value of the control set to 1.

PEG-12 glycerol dimyristate [GDM12]
relative expression level of GSR gene (GSR gene; 100 μM, culture 30 hr): about 1.5 times that of the control | relative expression level of SVCT2 gene (SVCT2 gene): about 1.4 times that of the control | relative expression level of SLC7A11 gene (SLC7A11 gene): about 1.4 times that of the control | relative expression level of ABCC1 gene (ABCC1 gene; 100 μM, culture 30 hr): about 1.3 times that of the control

N[C@@H](CS)C(=O)O [cysteine, reference compound]
effect of cysteine (cystine) on the cytotoxicity caused by hydroquinone (cell viability) ([1]; GDS23 non-added samples, cysteine 10 μM and 50 μM, 30 hours, versus cysteine non-added sample): almost no effect

PEG-23 glycerol distearate [GDS23]
relative expression level of GSR gene (GSR gene; 50 μM, culture 24 hr): about 1.8 times that of the control | cytotoxicity by hydroquinone (cell viability), GDS23-added versus GDS23 non-added samples ([2]; 50 μM GDS23 24 hours, ascorbic acid 0-100 μM 24 hours): significantly reduced | cell viability of ascorbic acid-added samples versus ascorbic acid non-added sample among GDS23-added samples ([2]; 50 μM GDS23 24 hours, ascorbic acid 1-100 μM 24 hours): higher | cytotoxicity by hydroquinone (cell viability), GDS23-added versus GDS23 non-added samples ([1]; 50 μM GDS23 24 hours, cysteine 0-50 μM 30 hours): significantly reduced | cell viability of cysteine-added samples versus cysteine non-added sample among GDS23-added samples ([1]; 50 μM GDS23 24 hours, cysteine 10 or 50 μM 30 hours): higher | SVCT2 protein band (Western blot image) (SVCT2 protein; FIG. 11): increase | amount of the SVCT2 protein (SVCT2 protein; Western blot, corrected with GAPDH, control = 1): about 1.4 times that in the control sample | relative expression level of ABCC1 gene (ABCC1 gene; 50 μM, culture 24 hr): about 2.1 times that of the control

O=C1O[C@H]([C@@H](O)CO)C(O)=C1O [ascorbic acid, reference compound]
effect of ascorbic acid on the cytotoxicity caused by hydroquinone (cell viability) ([2]; GDS23 non-added samples, ascorbic acid 5 to 100 μM, 24 hours, versus ascorbic acid non-added sample): almost no effect
